Where a name gives a salt, the structure may show the parent alone.
Test system: increase in intravesical pressure induced by carbachol in anesthetized dog
Assay: Effect on the increase in intravesical pressure induced by carbachol in anesthetized dog
Format: in vivo
Settings: 0.01 mg/kg injected intravenously 5 minutes before carbachol (1.8 μg/kg); anesthetized female Beagle dogs; N = 5; Before 6.2 ± 1.1; *P < 0.01 vs Before (ANOVA)
Procedure: Effect on the increase in intravesical pressure induced by carbachol in anesthetized dog
Female Beagle dogs weighing 8.0-15.0 kg were fasted for 24 hours and maintained under halothane anesthesia. A 12F Foley catheter was lubricated with water soluble jelly, inserted into the urethral orifice and advanced approximately 10 cm until the balloon tip was placed well inside the bladder. The balloon was then inflated with 5 ml of room air and catheter slowly withdrawn just part the first resistance that is felt at the bladder neck. Urine was completely drained out through the catheter, and 30 ml of biological saline was infused. The catheter was connected to pressure transducer, and intravesical pressure was continuously recorded. The test compound was injected intravenously at 5 minutes before the administration of carbachol (1.8 μg/kg).

COC(=O)Nc1ccc(C(CCNC[C@H](O)COc2ccccc2)c2ccc(NC(=O)OC)cc2)cc1 [Test Compound (1), (2S)-1-Phenoxy-3-[3,3-bis[4-(methoxycarbonylamino)-phenyl]propylamino]-2-propanol sulfate (2:1) (crystal Form A)]
Increase in intravesical pressure (mmHg): 4.9 ± 0.9* mmHg
